Measurements: PMC8558867, “Development of BromoTag: A “Bump-and-Hole”–PROTAC System to Induce Potent, Rapid, and Selective Degradation of Tagged Target Proteins” (Journal of Medicinal Chemistry, 2021)
Read-outs that look alike come from different tables or passages of the source.

Assays:
[1] = tested on: proteome of heterozygous BromoTag-Brd2 HEK293 cells; assay: Multiplexed TMT labeling mass spectrometry proteomics; assay type: cell-based, human; details: 1 μM, 2 h
Method: To do this, we subjected our heterozygous BromoTag-Brd2 HEK293 cell line to a 1 μM treatment of 46, its non-degrading control 52, or vehicle (DMSO) for 2 h prior to harvest. The harvested lysate was then subjected to multiplexed tandem mass tag (TMT) labeling mass spectrometry to enable quantitative and unbiased analysis of protein levels in each condition.
CRISPR-modified BromoTag-Brd2 HEK293 cells (5 × 10^6) were seeded on a […] 24 h before treatment. The cells were treated with either DMSO, 1 μM AGB1, or 1 μM cis-AGB1. After 2 h of treatment, the cells were washed twice with PBS. The cells were lysed in 150 μL of 100 mM TEAB and 5% (w/v) sodium dodecyl sulfate. The lysate was sonicated for 10 s and then centrifuged at 15,000g for 5 min with the supernatant collected post-centrifugation. The samples were then quantified using a micro-BCA protein assay kit (Thermo Fisher Scientific); 300 μg of each sample was then reduced, alkylated, and then digested using the Strap mini protocol (protifi) as described by the manufacturer (protifi) with some modification. The samples were double-digested with trypsin (1:40) first overnight and then for another 6 h with the same ratio (1:40) in 50 mM TEAB buffer. The peptides were quantified using a quantitative fluorometric peptide assay (Thermo Fisher Scientific). […]

[2] = tested on: HEK293 cells; assay: CellTiter-Glo 2.0 cell viability assay, HEK293; assay type: cell-based, human; details: Homo sapiens; HEK293, 48 Hours, mean ±S.E.M, N = 3; read-out: pEC50 (cell viability) (converted)
Method: (§1) All cell lines were treated with compounds in duplicate (triplicate for DMSO controls) at a 1× concentration in 0.1% DMSO. The compounds were serially diluted to produce a 7-point, 10-fold titration. The cells were treated with 50:100 μL of compound for a final concentration of 10 μM:10 pM in 0.1% DMSO. At the point of spectrometric analysis, cells were treated with 100 μL of Promega CellTiter-Glo 2.0 Cell Viability Assay reagent. The plates were subjected to an orbital shaker for 2 min to encourage lysis and left for a further 5 min to reach peak luminescence. Luminescence was then recorded on a BMG Labtech PHERAstar luminescence plate reader with recommended settings. Data extracted from this analysis was analyzed with GraphPad Prism (v. 8.2.0, GraphPad) and normalized to the DMSO vehicle control. The EC50 values were derived from these plots.

[3] = tested on: BET proteins: Brd2, Brd3, and Brd4; assay: Single-concentration western blot screen, BET proteins; assay type: cell-based, human; details: 1 μM, 6 h
Method: With this initial library in hand, we set out to evaluate the activity and selectivity of our I-BET-based B&H–PROTACs by treating our heterozygous BromoTag-Brd2 HEK293 cells with 1 μM of compounds 15–17 or 1 μM of control compounds MZP-15 (14), MZ1 (1), and cis-MZ1 for 6 h, which is the sufficient time to achieve effective MZ1-induced BET protein degradation (Figure 4A). The cells were harvested, and the subsequent lysate was analyzed via western blot using antibodies against BET proteins: Brd2, Brd3, and Brd4 (Figure 4A).
All cells were harvested on ice with RIPA lysis and extraction buffer (Thermo Fisher Scientific, 89901) supplemented with protease inhibitor cocktail (Merck, 11697498001) and Benzonase Nuclease (Sigma, E1014) before being stored at −20 °C prior to use. Total protein quantity was determined using the BCA protein assay (#23225, Pierce, Rockford, Illinois). The protein concentration was determined using the BCA assay (Thermo Fisher Scientific, 23225). The samples were then prepared and loaded onto NuPAGE 4–12% bis–tris Midi gels (Thermo Fisher Scientific, WG1403A), followed by the transfer of proteins onto nitrocellulose membranes (EMD Millipore). […] All western blots were analyzed for band intensities using Image Lab from Bio-Rad (LI-COR, Biosciences). The data extracted from these blots were then plotted and analyzed using Prism (v. 8.2.0, GraphPad).

[4] = tested on: Brd4^BD2 wild-type domain; set-up: method as in PMID 32756710; details: cited from earlier work
[5] = set-up: method as in earlier work; details: mice, cited from earlier work
[6] = tested on: MV-4-11 cells; assay: CellTiter-Glo 2.0 cell viability assay, MV-4-11; assay type: cell-based, human; details: Homo sapiens, MV4-11
Method: as §1

[7] = tested on: 22RV1 cells; assay: CellTiter-Glo 2.0 cell viability assay, 22RV1; assay type: cell-based, human; details: Homo sapiens; 22RV1, 48 Hours, mean ±S.E.M, N = 2; read-out: pEC50 (cell viability) (converted)
Method: as §1

## CC[C@@H](C(=O)OCCOCCOCCOCC(=O)N[C@H](C(=O)N1C[C@@H](O)C[C@H]1C(=O)NCc1ccc(-c2scnc2C)cc1)C(C)(C)C)[C@@H]1N=C(c2ccc(Cl)cc2)c2c(sc(C)c2C)-n2c(C)nnc21 [cis-AGB1 (52), (S)-13-((2S,4S)-4-Hydroxy-2-((4-(4-methylthiazol-5-yl)benzyl)carbamoyl)pyrrolidine-1-carbonyl)-14,14-dimethyl-11-oxo-3,6,9-trioxa-12-azapentadecyl (R)-2-((S)-4-(4-chlorophenyl)-2,3,9-trimethyl-6H-thieno[3,2-f][1,2,4]triazolo[4,3-a][1,4]diazepin-6-yl)butanoate]
[1]
  proteins significantly degraded among the 6621 proteins quantified: No significant degradation
[2]
  EC50: > 10000 nM

## COc1ccc2c(c1)C(c1ccc(Cl)cc1)=NC(CC(=O)NCCOCCOCCOCC(=O)N[C@H](C(=O)N1C[C@H](O)C[C@H]1C(=O)NCc1ccc(-c3scnc3C)cc1)C(C)(C)C)c1nnc(C)n1-2 (stereo partly drawn) [compound 14, (2S,4R)-1-((2S)-2-(tert-Butyl)-17-(6-(4-chlorophenyl)-8-methoxy-1-methyl-4H-benzo[f][1,2,4]triazolo[4,3-a][1,4]diazepin-4-yl)-4,16-dioxo-6,9,12-trioxa-3,15-diazaheptadecanoyl)-4-hydroxy-N-(4-(4-methylthiazol-5-yl)benzyl)pyrrolidine-2-carboxamide]
[3]
  degradation activity across all the three BET family members relative to 1: significant lower activity

## CC[C@@H](C(=O)OC)[C@@H]1N=C(c2ccc(Cl)cc2)c2c(sc(C)c2C)-n2c(C)nnc21 [ET-JQ1-OMe]
[4]
  binding to the wild-type domain: undetectable binding

## Cc1ncsc1-c1ccc(CNC(=O)[C@@H]2C[C@@H](O)CN2C(=O)[C@@H](NC(=O)COCCOCCOCCNC(=O)C[C@@H]2N=C(c3ccc(Cl)cc3)c3c(sc(C)c3C)-n3c(C)nnc32)C(C)(C)C)cc1 [MZ1 (1)]
[5]; IV (5 mg/kg), 5 mg/kg
  T1/2: 1.04 h
[5]; SC (5 mg/kg)
  T1/2: 2.95 h
[6]; MV-4-11, 24 Hours, mean ±S.E.M, N = 2, read-out: pEC50 (cell viability) (converted)
  EC50: 25.1 nM
[6]; MV-4-11 cells, read-out: EC50 (cell viability)
  EC50: ~20 nM
[7]
  EC50: 5010 nM
